Patent US5736394A, “Cellular uptake of modified peptides” (Boston Biomedical Research Institute, priority 1996, dated 1998)
Where no end group is shown, it is not given here. The star is where a group is joined. Benzoyl(4-benzoyl) = O=C(c1ccccc1)c1ccc(C(=O)*)cc1

Columns and labels:
HL60 cells [1] = test: HL60 cell proliferation ([3H]TdR incorporation into DNA) after 18 h incubation, plus or minus irradiation; format: cell-based, human
Description: A set of experiments were designed to assess the effects of Bz-peptides on ras-mediated signaling of cell proliferation, under conditions where incubations of cells, post peptide addition, were shorter (18 h) than that found optimal for their population doubling (~24 h). Experiments were intended to reveal early differences in the relative stability of the Bz-peptides, as judged by their effects on inhibition of cell proliferation, plus or minus irradiation.
HL60 cells were exposed to Bz-ACVIM SEQ ID NO: 4 (FPTase-specific), Bz-ACVIL SEQ ID NO: 5 (GGPTase-I-specific), the benzophenone photophore (BBA), mevinolin (proliferation inhibition control), or the DMSO vehicle alone, plus or minus irradiation. After incubation for 18 h at 37° C., irradiated and non-irradiated cultures were assayed for [^3 H]TdR incorporation into DNA (a measure of proliferation).

HL-60 cells = test: Cellular uptake of [3H]Bz-peptides / [3H]BBA by HL60 cells (silicone oil centrifugation, cell pellets counted)
Description: Initial experiments were designed to determine whether the Bz-modified peptide could cross cellular membranes. The methods employed for these studies are given briefly. First, 2×10^6 HL-60 cells/mL were incubated in serum free medium at 37° C. together with either [^3 H]-benzoylbenzoic acid ([^3 H]BBA) or the [^3 H]Bz-peptideover a 45 min time course. Aliquots (0.5 mL) of the cell suspension were removed at the times shown and separated from the aqueous medium by centrifugation through a silicone oil barrier. The cell pellets in the oil layer were counted.
The volume of an average HL60 cell can be estimated as 4.2×10^-6 μL. Thus, the pellet volume occupied by a […] suspension of 10^6 cells is […].

HL60 cells [2] = test: Inhibition of HL60 cell proliferation ([3H]TdR incorporation at 24 h) after photolysis of intracellular Bz-peptide at 365 nm; format: cell-based, human; settings: for cytostatic response / inhibition of DNA synthesis: irradiation immediately after plating, FIG. 2A
Source text: Experiments were designed to determine whether, after admission of the target-specific Bz-peptide molecules into proliferating cells, their photolysis in situ would induce a cytostatic response. Such a response would implicate the irreversible inhibition of ras-prenylating enzymes. […] It is important to note that, regardless of treatment, Trypan blue-assessed viability remained above 90% under the conditions employed for all experiments shown in FIG. 2A,B.
Two fundamental variations were performed. For FIG. 2A, cells were incubated in serum-free medium in the presence of a Bz-peptide, mevinolin, or, as control, with the DMSO delivery vehicle alone, for 15 min at room temp., after which fetal bovine serum was added to 10% (v/v) followed by plating in triplicate at 0.5 mL/well. These plates were immediately irradiated at 365 nm for 15 min to excite the intracellular Bz photophore, then placed in the incubator at 37° C. for 24 h. For FIG. 2B, the same procedure was followed except that, after serum replenishment and plating, cells were first incubated at 37° C. for 1 h, then removed from the incubator, irradiated for 15 min, and returned to incubation for 24 h. The 1 h incubation prior to irradiation was performed to assess, indirectly, the potential for intracellular destruction (or other means of depletion) of the Bz-peptides. At 24 h after serum replenishment, all cells were pulse-labeled with [^3 H]TdR to record the effect of intracellular Bz-peptide photolysis (as well as of mevinolin treatment, the effects of which have been well documented) on DNA synthesis and, thereby, on cell proliferation.

[3] = 10 μM, 1 h delay at 37° C. before photolysis, 24 h, FIG. 2B

Compound: O=C(O)c1ccc(C(=O)c2ccccc2)cc1 [BBA, 4-benzoylbenzoic acid]
- effect on the cell's capacity for proliferation (HL60 cells [1]; whether cells were irradiated or not, 6th bar both panels): no effect

Compound: APRTPGGRR
- intracellular accumulation (HL-60 cells; 48 μM, HL60 cells, lowest trace in FIG. 1B): no evidence for intracellular accumulation

Compound: Bz-ACVIL: Bz-derivatized pentapeptide ACVIL; GGPTase-I-specific photoaffinity inhibitor ({Benzoyl(4-benzoyl)}-ACVIL)
- inhibitory effect (HL60 cells [2]; [3]): ineffective
- cytostatic response (HL60 cells [2]; 10 μM, 24 h): did not do so
- loss of the inhibitory capacity manifest in FIG. 2A (HL60 cells [2]; 100 μM, 1 h delay before photolysis, FIG. 2B relative to FIG. 2A): about 60%
- cytostatic response (HL60 cells [2]; 100 μM, 24 h): clear cytostatic response
- influx and equilibration into cells (HL-60 cells): behaved similarly

Compound: Bz-ACVIM: Bz-derivatized pentapeptide; benzophenone moiety amide-coupled to the N-terminus of ACVIM; FPTase-specific photoaffinity inhibitor ({Benzoyl(4-benzoyl)}-ACVIM)
- inhibitory effect (HL60 cells [2]; [3]): much lower inhibitory effect
- inhibition of DNA synthesis (HL60 cells [2]; 10 μM, 24 h): 75-80%
- cytostatic effect (HL60 cells [2]; 100 μM, 1 h delay at 37° C. before photolysis, 24 h, FIG. 2B): remained at least as powerful as in FIG. 2A
- inhibition of DNA synthesis (HL60 cells [2]; 100 μM, 24 h): 75-80%
- influx and equilibration into cells (HL-60 cells): extremely rapid
- time to reach maximum levels of influx and equilibration (HL-60 cells): ≤ 15 min

Compound: mevinolin [reference compound]
- growth inhibition (HL60 cells [2]; 10 μM, FIGS. 2A & 2B, whether irradiation was delayed for 1 h or not): apparent
- relative extent of inhibition of cell proliferation (HL60 cells [1]; whether or not cells were irradiated, 2nd bar both panels): ~ 50%
